Test results from ChEMBL document CHEMBL3124800, “HTS followed by NMR based counterscreening. Discovery and optimization of pyrimidones as reversible and competitive inhibitors of xanthine oxidase” (Bioorg Med Chem Lett, 2014).
In brackets after ≈: the same amount, converted by molar mass.

How the values were obtained:
[1] = biological target: Xanthine dehydrogenase/oxidase (Homo sapiens, UniProt P47989)
[2] = Intrinsic clearance in human liver microsomes; format: ADME; conditions: read-out: CLH
[3] = Solubility of the compound in phosphate buffer at pH 7.4
[4] = Apparent permeability across apical side to basolateral side in human Caco2 cells; conditions: Caco-2
[5] = Apparent permeability across basolateral side to apical side in human Caco2 cells; conditions: Caco-2
[6] = Oral bioavailability in Han Wistar rat at 6 umol/kg; format: ADME, organism-based; conditions: in vivo
Rattus norvegicus [7] = assay: Volume of distribution at steady state in Han Wistar rat at […]; format: ADME, organism-based; conditions: in vivo
[8] = Clearance in Han Wistar rat at 1 umol/kg, iv; format: ADME, organism-based; conditions: in vivo
[9] = Half life in Han Wistar rat at 1 umol/kg, iv; format: ADME, organism-based; conditions: in vivo
[10] = Cmax in Han Wistar rat at 6 umol/kg, po; format: ADME, organism-based; parameters: dose 6 umol/kg, route oral; conditions: in vivo
Rattus norvegicus [11] = assay: Antihyperuricemic activity in potassium oxonate-induced hyperuricemic Sprague-Dawley rat model assessed as decrease of uric acid level in serum at 10 mg/kg, po measured after 1 hr relative to vehicle-treated control; format: functional; parameters: scale not given: the % may be the effect or the level left
Rattus norvegicus [12] = assay: Antihyperuricemic activity in potassium oxonate-induced hyperuricemic Sprague-Dawley rat model assessed as decrease of uric acid level in serum at 10 mg/kg, po measured after 2 hrs relative to vehicle-treated control; format: functional; parameters: scale not given: the % may be the effect or the level left
[13] = biological target: Xanthine dehydrogenase/oxidase (Rattus norvegicus, UniProt P22985); assay: Inhibition of rat xanthine oxidase
[14] = Plasma concentration in potassium oxonate-induced hyperuricemic Sprague-Dawley rat model at 10 mg/kg, po measured after 2 hrs; format: ADME, organism-based; parameters: dose 10 mg/kg, route oral
Hepatocyte = assay: Intrinsic clearance in human hepatocytes assessed per million cells; format: ADME, cell-based
[15] = biological target: T1, Xanthine dehydrogenase/oxidase (Bos taurus, UniProt P80457); assay: Inhibition of bovine xanthine oxidase
[16] = biological target: T1, Xanthine dehydrogenase/oxidase; assay: Reversible inhibition of bovine xanthine oxidase; conditions: cattle
[17] = biological target: T1, Xanthine dehydrogenase/oxidase; assay: Competitive inhibition of bovine xanthine oxidase
Rattus norvegicus [18] = assay: Antihyperuricemic activity in potassium oxonate-induced hyperuricemic Sprague-Dawley rat model assessed as decrease of uric acid level in serum at 30 mg/kg, po measured after 1 hr relative to vehicle-treated control; format: functional; parameters: scale not given: the % may be the effect or the level left
Plasma = assay: Antihyperuricemic activity in potassium oxonate-induced hyperuricemic Sprague-Dawley rat model assessed as decrease of uric acid level in serum at 30 mg/kg, po measured after 2 hrs relative to vehicle-treated control; format: functional; parameters: scale not given: the % may be the effect or the level left

T1 sequence (P80457 whole entry): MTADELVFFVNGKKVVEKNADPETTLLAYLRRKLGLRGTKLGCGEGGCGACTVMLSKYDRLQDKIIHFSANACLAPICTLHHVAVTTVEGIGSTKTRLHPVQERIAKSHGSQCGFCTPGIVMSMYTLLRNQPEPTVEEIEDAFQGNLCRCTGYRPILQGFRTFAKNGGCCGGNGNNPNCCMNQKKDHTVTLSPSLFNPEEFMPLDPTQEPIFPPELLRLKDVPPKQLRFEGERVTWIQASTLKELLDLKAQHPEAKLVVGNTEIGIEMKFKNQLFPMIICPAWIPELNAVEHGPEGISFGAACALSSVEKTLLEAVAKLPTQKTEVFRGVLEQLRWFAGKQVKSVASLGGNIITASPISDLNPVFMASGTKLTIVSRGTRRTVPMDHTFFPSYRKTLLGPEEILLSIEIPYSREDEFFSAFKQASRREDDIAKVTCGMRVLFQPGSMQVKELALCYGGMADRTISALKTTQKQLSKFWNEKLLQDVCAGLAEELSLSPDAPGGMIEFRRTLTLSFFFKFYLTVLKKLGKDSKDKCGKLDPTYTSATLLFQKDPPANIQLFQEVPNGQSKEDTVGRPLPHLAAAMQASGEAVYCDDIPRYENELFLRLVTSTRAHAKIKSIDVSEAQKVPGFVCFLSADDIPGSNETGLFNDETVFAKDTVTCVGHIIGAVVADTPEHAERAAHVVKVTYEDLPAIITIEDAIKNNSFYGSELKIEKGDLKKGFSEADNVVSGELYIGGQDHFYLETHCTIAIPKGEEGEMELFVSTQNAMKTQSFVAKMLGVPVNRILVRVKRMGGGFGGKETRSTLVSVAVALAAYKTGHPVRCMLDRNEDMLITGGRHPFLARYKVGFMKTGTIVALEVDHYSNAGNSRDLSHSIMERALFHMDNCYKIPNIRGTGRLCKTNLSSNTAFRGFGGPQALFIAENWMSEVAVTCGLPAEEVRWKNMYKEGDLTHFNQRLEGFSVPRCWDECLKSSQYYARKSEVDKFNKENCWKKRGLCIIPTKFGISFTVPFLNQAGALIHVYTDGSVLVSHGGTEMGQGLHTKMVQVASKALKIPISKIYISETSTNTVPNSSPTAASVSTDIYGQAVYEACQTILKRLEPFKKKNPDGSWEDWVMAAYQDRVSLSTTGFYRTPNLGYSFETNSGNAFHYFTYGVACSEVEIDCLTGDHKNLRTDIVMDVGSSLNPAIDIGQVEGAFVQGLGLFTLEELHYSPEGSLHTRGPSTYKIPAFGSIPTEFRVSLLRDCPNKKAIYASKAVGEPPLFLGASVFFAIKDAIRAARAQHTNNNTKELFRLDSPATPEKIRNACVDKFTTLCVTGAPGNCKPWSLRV
Chain of Xanthine dehydrogenase/oxidase (Homo sapiens, UniProt P47989) (P47989 whole entry): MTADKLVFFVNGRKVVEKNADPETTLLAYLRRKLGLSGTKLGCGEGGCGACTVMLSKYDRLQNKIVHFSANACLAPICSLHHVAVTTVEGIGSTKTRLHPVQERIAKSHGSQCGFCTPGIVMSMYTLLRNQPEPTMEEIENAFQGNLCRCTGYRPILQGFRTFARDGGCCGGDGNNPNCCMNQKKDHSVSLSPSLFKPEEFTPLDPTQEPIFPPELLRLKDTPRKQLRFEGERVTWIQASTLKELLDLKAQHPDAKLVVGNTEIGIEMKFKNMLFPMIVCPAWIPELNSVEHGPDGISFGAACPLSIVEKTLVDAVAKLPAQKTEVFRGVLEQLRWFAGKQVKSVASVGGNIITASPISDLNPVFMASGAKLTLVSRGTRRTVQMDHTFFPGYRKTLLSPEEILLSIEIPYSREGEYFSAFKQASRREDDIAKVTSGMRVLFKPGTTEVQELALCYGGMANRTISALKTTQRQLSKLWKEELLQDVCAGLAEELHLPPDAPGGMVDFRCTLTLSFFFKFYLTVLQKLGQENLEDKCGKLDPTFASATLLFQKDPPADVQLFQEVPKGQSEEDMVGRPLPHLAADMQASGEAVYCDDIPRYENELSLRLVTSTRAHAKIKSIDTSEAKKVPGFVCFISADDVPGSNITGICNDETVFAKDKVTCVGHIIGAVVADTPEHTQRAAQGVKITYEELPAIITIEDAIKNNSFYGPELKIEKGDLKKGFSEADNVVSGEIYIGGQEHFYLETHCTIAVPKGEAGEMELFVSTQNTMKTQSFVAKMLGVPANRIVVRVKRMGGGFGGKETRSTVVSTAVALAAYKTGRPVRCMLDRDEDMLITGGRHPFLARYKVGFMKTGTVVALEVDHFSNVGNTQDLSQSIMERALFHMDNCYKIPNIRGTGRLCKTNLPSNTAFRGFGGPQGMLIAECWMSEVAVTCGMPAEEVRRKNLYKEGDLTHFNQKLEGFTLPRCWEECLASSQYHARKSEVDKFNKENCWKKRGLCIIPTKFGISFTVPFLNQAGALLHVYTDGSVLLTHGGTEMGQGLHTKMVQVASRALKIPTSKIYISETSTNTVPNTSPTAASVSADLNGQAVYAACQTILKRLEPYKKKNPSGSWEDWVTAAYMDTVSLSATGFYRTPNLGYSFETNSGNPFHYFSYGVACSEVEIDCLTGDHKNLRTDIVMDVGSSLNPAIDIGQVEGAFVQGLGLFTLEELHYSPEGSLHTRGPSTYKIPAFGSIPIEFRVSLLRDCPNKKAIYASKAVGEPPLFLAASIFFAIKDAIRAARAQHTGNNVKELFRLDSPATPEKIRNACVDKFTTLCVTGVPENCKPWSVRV
Chain of Xanthine dehydrogenase/oxidase (Rattus norvegicus, UniProt P22985) (P22985 whole entry): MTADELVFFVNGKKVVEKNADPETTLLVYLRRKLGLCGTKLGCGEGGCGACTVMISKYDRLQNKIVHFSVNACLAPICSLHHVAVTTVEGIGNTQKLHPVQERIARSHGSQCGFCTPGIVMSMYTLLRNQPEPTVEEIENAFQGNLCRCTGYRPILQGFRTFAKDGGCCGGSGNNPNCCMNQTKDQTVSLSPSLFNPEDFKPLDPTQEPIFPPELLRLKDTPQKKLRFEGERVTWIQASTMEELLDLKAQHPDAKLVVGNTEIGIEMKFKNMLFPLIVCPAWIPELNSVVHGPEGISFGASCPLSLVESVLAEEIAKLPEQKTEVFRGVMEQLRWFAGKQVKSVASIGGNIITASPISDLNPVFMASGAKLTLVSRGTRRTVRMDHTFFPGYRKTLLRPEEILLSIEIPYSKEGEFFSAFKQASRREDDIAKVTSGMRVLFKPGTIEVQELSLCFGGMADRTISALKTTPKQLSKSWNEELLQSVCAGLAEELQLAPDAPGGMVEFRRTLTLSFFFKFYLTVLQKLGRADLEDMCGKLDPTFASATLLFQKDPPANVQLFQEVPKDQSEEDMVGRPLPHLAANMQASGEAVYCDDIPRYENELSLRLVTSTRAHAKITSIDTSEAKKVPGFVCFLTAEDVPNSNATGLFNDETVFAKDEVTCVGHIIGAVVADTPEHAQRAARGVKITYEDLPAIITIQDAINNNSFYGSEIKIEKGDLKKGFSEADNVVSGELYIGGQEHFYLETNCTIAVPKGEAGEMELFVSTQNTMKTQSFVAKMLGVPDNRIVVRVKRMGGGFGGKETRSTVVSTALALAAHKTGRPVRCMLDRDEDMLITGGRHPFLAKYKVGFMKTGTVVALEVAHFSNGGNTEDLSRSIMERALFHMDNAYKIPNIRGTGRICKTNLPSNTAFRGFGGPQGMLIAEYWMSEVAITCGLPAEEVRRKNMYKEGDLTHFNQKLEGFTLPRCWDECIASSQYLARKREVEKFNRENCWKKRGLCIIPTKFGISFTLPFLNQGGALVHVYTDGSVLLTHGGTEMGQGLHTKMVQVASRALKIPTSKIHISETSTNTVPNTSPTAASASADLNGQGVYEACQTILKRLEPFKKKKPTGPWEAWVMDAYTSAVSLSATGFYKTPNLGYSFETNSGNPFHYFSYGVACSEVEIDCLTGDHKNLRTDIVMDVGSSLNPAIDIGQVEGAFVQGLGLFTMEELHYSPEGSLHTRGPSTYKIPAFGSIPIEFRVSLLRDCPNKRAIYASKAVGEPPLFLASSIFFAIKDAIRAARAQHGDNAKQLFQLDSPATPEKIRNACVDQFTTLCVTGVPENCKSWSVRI

Compound	microsomal CLint [2] [µL/min/mg]	solubility [3] [µM]	Papp A→B [4] [×10⁻⁶ cm/s]	Papp B→A [5] [×10⁻⁶ cm/s]	further results
COc1ccc(-c2cnc3nc[nH]c(=O)c3n2)cc1	–	–	–	–	IC50 [1]: 15.8 µM
CC(C)COc1ccc(-c2cc(=O)[nH]c(N)n2)cc1	42	23 (≈ 5.96 µg/mL)	–	–	–
Nc1nc(-c2ccc(OCc3ccccc3)cc2)cc(=O)[nH]1	–	< 1	–	–	–
Nc1nc(-c2ccc(OCCCCO)cc2)cc(=O)[nH]1	6.8	95 (≈ 26.2 µg/mL)	–	–	–
Nc1nc(-c2ccc(OCC3CCOC3)cc2)cc(=O)[nH]1 (stereo unspecified)	21	58 (≈ 16.7 µg/mL)	–	–	–
CC(=O)Nc1ccc(-c2cc(=O)[nH]c(N)n2)cc1	–	–	–	–	CLH (Hepatocyte): 2.7 µL/min/1e6 cells
c1ccc(-c2nn3c(-c4cnccn4)nnc3s2)cc1	–	–	–	–	IC50 [15]: 79.4 nM
O=c1[nH]ccc2nc(-c3cccc(C(F)(F)F)c3)cn12	–	–	–	–	inhibition (INH) [16]: Active; IC50 [17]: 398 nM
CC(=O)Nc1nc(-c2ccccc2)cc(=O)[nH]1	–	–	–	–	IC50 [1]: > 100 µM
CS(=O)(=O)Nc1nc(-c2ccccc2)cc(=O)[nH]1	–	–	–	–	IC50 [1]: > 100 µM
Cn1c(N)nc(-c2ccccc2)cc1=O	–	–	–	–	IC50 [1]: > 100 µM
Oc1ncnc2[nH]ncc12 [ALLOPURINOL]	–	–	–	–	Activity (Rattus norvegicus [18]): 87%; Activity (Plasma): 94%
Nc1nc(-c2ccccc2)c(Br)c(=O)[nH]1 [BROPIRIMINE]	–	–	–	–	IC50 [1]: 1 µM
Cc1nc(-c2ccc(OCC(C)C)c(C#N)c2)sc1C(=O)O [FEBUXOSTAT]	–	–	–	–	Activity (Rattus norvegicus [11]): 78%; IC50 [1]: 0.00126 µM; Activity (Rattus norvegicus [12]): 75%; IC50 [13]: 3.98 nM; concentration at 2 h [14]: 8.7 µM

Now from value to compound, other results behind:

microsomal CLint [2] [µL/min/mg]	solubility [3] [µM]	Papp A→B [4] [×10⁻⁶ cm/s]	Papp B→A [5] [×10⁻⁶ cm/s]	Compound	further results
7.9	140 (≈ 39.8 µg/mL)	–	–	CC(C)COc1ccc(-c2cc(=O)[nH]c(N)n2)cc1C#N	–
3.4	41 (≈ 14.2 µg/mL)	0.2	24	N#Cc1cc(-c2nc(N)[nH]c(=O)c2Cl)ccc1OCC1CCOC1 (stereo unspecified)	–
5.3	83 (≈ 29.9 µg/mL)	2.1	35	Cc1cc(-c2nc(N)[nH]c(=O)c2Cl)cc(C#N)c1OCC1CCOC1 (stereo unspecified)	–
7.5	24 (≈ 9.35 µg/mL)	8.4	69	Nc1nc(-c2ccc(OCC3CCOC3)c(C(F)(F)F)c2)c(Cl)c(=O)[nH]1 (stereo unspecified)	bioavailability [6]: 33%; Vdss (Rattus norvegicus [7]): 5.7 L/kg; clearance [8]: 15 mL/min/kg; half-life [9]: 600 min; Cmax [10]: 270 nM
18	45 (≈ 18.3 µg/mL)	6.4	74	Nc1nc(-c2ccc(OCC3CCOC3)c(OC(F)(F)F)c2)c(Cl)c(=O)[nH]1 (stereo unspecified)	Activity (Rattus norvegicus [11]): 55%; bioavailability [6]: 22%; Vdss (Rattus norvegicus [7]): 13 L/kg; clearance [8]: 35 mL/min/kg; Activity (Rattus norvegicus [12]): 54%; IC50 [13]: 7.94 nM; concentration at 2 h [14]: 0.37 µM; half-life [9]: 792 min; Cmax [10]: 80 nM
–	36 (≈ 9.19 µg/mL)	–	–	Nc1nc(-c2cccc(C(F)(F)F)c2)cc(=O)[nH]1	–
3.2	330 (≈ 89.5 µg/mL)	–	–	Nc1nc(-c2cccc(OC(F)(F)F)c2)cc(=O)[nH]1	–
1.2	350 (≈ 79.2 µg/mL)	–	–	Cc1cc(C#N)cc(-c2cc(=O)[nH]c(N)n2)c1	–
0.2	430 (≈ 120 µg/mL)	–	–	N#Cc1cc(-c2cc(=O)[nH]c(N)n2)cc(C(F)(F)F)c1	–
6.9	3.1 (≈ 0.847 µg/mL)	–	–	CC(C)(C)COc1ccc(-c2cc(=O)[nH]c(N)n2)cc1	–
4.1	14 (≈ 4.33 µg/mL)	0.1	30	CC(C)COc1ccc(-c2nc(N)[nH]c(=O)c2C#N)cc1C#N	bioavailability [6]: 5.5%; Vdss (Rattus norvegicus [7]): 2.5 L/kg; clearance [8]: 1.8 mL/min/kg; half-life [9]: 1140 min; Cmax [10]: 70 nM
16	–	–	–	CC(C)COc1ccc(-c2nc(N)[nH]c(=O)c2Cl)cc1C#N	–
3.6	37 (≈ 12 µg/mL)	–	–	CNc1nc(-c2ccc(OCC(C)C)c(C#N)c2)c(C#N)c(=O)[nH]1	–
1.7	93 (≈ 31.1 µg/mL)	0.2	25.6	N#Cc1cc(-c2nc(N)[nH]c(=O)c2Cl)ccc1OCCCCO	–
1.7	45 (≈ 13.8 µg/mL)	0.1	31	N#Cc1cc(-c2nc(N)[nH]c(=O)c2C#N)ccc1OCC1CC1	–
21	86 (≈ 34.1 µg/mL)	0.1	29	N#Cc1c(-c2ccc(OCC3CCOC3)c(OC(F)(F)F)c2)nc(N)[nH]c1=O (stereo unspecified)	–
36	6 (≈ 2.29 µg/mL)	0.4	4.1	CC(C)(C)COc1ccc(-c2nc(N)[nH]c(=O)c2C#N)cc1OC(F)(F)F	–
8.5	1.2 (≈ 0.423 µg/mL)	1.7	23	CC(C)COc1ccc(-c2nc(N)[nH]c(=O)c2C#N)cc1C(F)(F)F	–
